In patent US5741476A, “Polyhydric phenol compounds” (Mallinckrodt Medical, Inc., priority 1992, dated 1998):
Like-named read-outs stand apart in the source and are kept apart here. Values belong to the molecule of their own block, whether it stands above or below them.

Key:
erythrocytes = test: binding of 3-125I-phloretin to erythrocytes; design: species or system human
Protocol: (§1) In order to be able to compare the binding to cancer cells with the binding to normal cells, the following experiments are carried out. Binding to certain cancer cells, viz. YAK1 mice lymphoma cells (10^6 cells/ml incubation medium) is compared with binding to erythrocytes of a young healthy person (10^6 cells/ml incubation medium), because erythocytes are typical reference cells for glucose transport studies.
(§2) The incubation media are respectively:
(§3) RPMI-buffer pH=8; 11 mM in glucose, and
(§4) RPMI buffer/0.9% NaCl: 1/1.
(§5) Each 1 ml essay contains 5% of foetal calf serum and is spiked (50 μl) with 3-^125 I-phloretin (initial activity is measured).
(§6) After 15 min incubation at 37° C., the suspension is centrifuged and the precipitate is resuspended with 1 ml cold buffer which is discarded after a second centrifugation. The final radioactive precipitate is suspended in 1 ml water and measured. The bound radioactivity is related to the initial activity.
Saturation binding of 3-^125 I-phloretin to 5.10^6 erythrocytes is performed in RPMI-buffer and Tris-buffer of pH 8. The binding experiments are performed at pH 8, because this is the pH of the RPMI buffer needed for optimum YAK1 cells growth. Incubation for 15 min at 37° C. Inhibition is studied by pre-incubation (15 min, 37° C.) of the erythrocytes in buffer containing 2.10^-4 M 3-Br-phloretin. After centrifugation, the Br-phloretin-containing solution is discarded and the precipitate washed with ice-cooled buffer. After a second centrifugation, the supernatant is discarded and the cells are resuspended in buffer containing 3^125 I-phloretin. After incubation for 15 min at 37° C., the same above procedure is applied. Phloretin is a weak acid (pK is approx. 7.3); only the uncharged (non-dissociated) form inhibits red cell glucose transport (Jennings et al., see above). Therefore the values mentioned hereinafter are corrected for dissociation.
When starting from small amounts (0.1×10^-10 M) N.C.A. 3-^125 I-phloretin up to higher concentrations and C.A. conditions (3-Br-phloretin used as analogue), two types of binding are observed: […]

YAK1 mice lymphoma cells = test: binding of 3-125I-phloretin to YAK1 lymphoma cells
Protocol: as §1, §2, §3, §4, §5, §6

hexokinase = test: hexokinase-model: inhibition of hexokinase-catalysed 6-phosphorilation of glucose; format: biochemical
Text: In vitro evaluation of 3-halo-phloretin compounds using the "hexokinase-model"
The "hexokinase-model" is used as a model system for the glucose-transport proteins, which play a paramount role in the glucose metabolism.
The mechanism of the glucose--glucosetransportprotein interaction and following transport through the cell membrane of glucose, as described in literature (Scientific American, January 1992, p. 32-39; Biochemistry, Vol. 28, No. 20, 1989, p. 8221-8227), and the induced-fit model described for glucose 6-phosphorilation by hexokinase (Cell Biology, 1989) show a certain analogy which let to assume, that the interaction between a potential glucose transport inhibitor with hexokinase can be a valuable in vitro model if this inhibition is competitive for glucose.
The substitution of halogen such as a bromine or iodine atom on the 3-position of the 4-hydroxyl-phenylpropion part of phloretin increases the inhibition potency as shown as follows:
Inhibition of hexokinase catalyses 6-phosphorilation of glucose by deoxyglucose, phloretin and 3-bromo-phloretin.

[1] = binding in human whole blood (RB/plasma distribution, reversibility); format: in vitro ADME; conditions: for blood plasma ratio at 0.25 h / blood plasma ratio: human; for blood plasma ratio at 0.25 h: 37° C., 15 min, read-out: RB/plasma ratio after re-equilibration
Protocol: In vitro experiments: binding in human whole blood
Jennings et al. [J. Gen. Phys., 1967, 67, 381] have reported the binding of phloretin to whole red blood cells. Their results let to assume that phloretin should enter the erythrocytes and bind to haemoglobine. This should mean that a phloretin-based radiotracer should not be suitable for in vivo use. Therefore the reversibility of the binding is checked. For this purpose 3-^123 I-phloretin is added to whole heparinised blood. This is centrifuged, yielding serum S-*I and red blood portion RB-*I. S-*I and non-radioactive RB (1/1) and respectively non-radioactive S and RB-*I (1/1) are incubated at 37° C. for 15 min and centrifuged. The radioactivity of all the weighed aliquots is measured in a well NaI(T1) detector.

[2] = in vivo distribution in rats
Protocol: The in vivo distribution in rats is determined by injecting approx. 10 μCi of the compound to be evaluated into the tail vein of the test animals. The test animals are sacrificed at appropriate time intervals after injection and the radioactivity of the organs of interest is measured by gamma scintillation counting.

[3] = weak acid; cited from earlier work

bound/free value of 3-125I-phloretin (erythrocytes; erythrocytes pre-incubated with 2×10^-4 M 3-Br-phloretin, blank 0.193, average of 5 experiments): 0.081
inhibition of 3-125I-phloretin binding (erythrocytes; pre-incubation with 2×10^-4 M 3-Br-phloretin, compared with blank): 58%
Compound: O=C(CCc1ccc(O)c(Br)c1)c1c(O)cc(O)cc1O [3-Br--phloretin, 3-bromophloretin]
decreased binding of 3-125I-phloretin (YAK1 mice lymphoma cells; co-incubation of 3-Br-phloretin, YAK1 cells, 15 min): 30%

potency as hexokinase inhibitor relative to the original phloretin (hexokinase; versus phloretin): approx. 2 times
Compound: O=C(CCc1ccc(O)c(I)c1)c1c(O)cc(O)cc1O [3-I--phloretin, 3-I-phloretin]

reversibility of binding to plasma-proteins and RB [1]: bound reversibly
blood plasma ratio at 0.25 h ([1]; N.C.A. radioactivity bound to RB, re-equilibrated with non-radioactive plasma): 0.15
blood plasma ratio at 0.25 h ([1]; N.C.A. radioactivity bound to plasma, re-equilibrated with non-radioactive RB): 0.13
blood plasma ratio ([1]; in the presence of non-radioactive Br-phloretin or phloretin): 0.32
blood plasma ratio ([1]; non-carrier-added (N.C.A.) conditions): 0.215
bound/free ratio (erythrocytes; N.C.A., 10^6 erythrocytes, 15 min 37° C., average of at least 20 experiments): 0.021
influence of glucose on binding (erythrocytes; presence of 3.10^-2 -5.10^-3 M glucose): hardly influences the binding
Bmax (erythrocytes; saturation binding 0.1 to 1.2 10^-10 M, Scatchard plot, pH 8): 4.7×10^-15 mol/10^6 erythrocytee
Kd (erythrocytes; saturation binding 0.1 to 1.2 10^-10 M, Scatchard plot, pH 8, 15 min 37° C., corrected for dissociation, read-out: apparent Kd): 80 pM
Compound: O=C(CCc1ccc(O)c([125I])c1)c1c(O)cc(O)cc1O [3-^125 I-phloretin]
bound/free ratio (YAK1 mice lymphoma cells; N.C.A., 10^6 YAK1 cells, 15 min 37° C., average of at least 20 experiments): 0.048
increase of uptake in YAK1 lymphoma cancer cells as compared to erythrocytes (YAK1 mice lymphoma cells; YAK1 versus erythrocytes): > 2 factor

saturability of uptake in heart and muscle ([2]; decreased uptake in the presence of Br-phloretin): apparently saturable
uptake in the lungs (L/B) ([2]; i.v. tail vein, N.C.A. and C.A.): high uptake in the lungs
Compound: O=C(CCc1ccc(O)c(I)c1)c1c(O)cc(O)cc1O [3-*I-phloretin]

type of inhibition of hexokinase activity (hexokinase; Lineweaver-Burck plots, versus glucose): competitive
Compound: O=C(CCc1ccc(O)cc1)c1c(O)cc(O)cc1O [phloretin, reference compound]
pK [3]: approx. 7.3
